Results from article PMC9827040 (Blood Advances, 2022).

Columns and labels:
[1] = tested on: WT and mutant BTK (E41K, T474I, C481S, C481R, C481T, C481Y, C481F, L528W); assay: WT or mutant BTK transiently expressed in HEK293 cells, immunoblotting; type: cell-based; conditions: HEK293, 0.1, 1 and 10 μM, 24 hours
CRBN = CRBN (Homo sapiens, UniProt Q96SW2); assay: CRBN-target-binding assay; conditions: HTRF
[2] = tested on: CCL3 and CCL4 secretion by TMD-8 cells; assay: CCL3 & CCL4 ELISA in anti-IgM stimulated TMD-8 cells; type: cell-based, human; conditions: 10 nM for 24 hours, 10 μg/mL anti-IgM 8 hours
TMD-8 BTK C481S cells = assay: Cell proliferation, C481S BTK-overexpressing TMD-8 cells; type: cell-based, human
[3] = tested on: CRBN neosubstrates (Ikaros, Helios, Aiolos, GSPT1, CK1-a); assay: Immunoblotting of CRBN neosubstrates in hematological cell lines; type: cell-based; conditions: 100 nM, 24 or 72 hours

Chain of CRBN (Q96SW2 whole entry): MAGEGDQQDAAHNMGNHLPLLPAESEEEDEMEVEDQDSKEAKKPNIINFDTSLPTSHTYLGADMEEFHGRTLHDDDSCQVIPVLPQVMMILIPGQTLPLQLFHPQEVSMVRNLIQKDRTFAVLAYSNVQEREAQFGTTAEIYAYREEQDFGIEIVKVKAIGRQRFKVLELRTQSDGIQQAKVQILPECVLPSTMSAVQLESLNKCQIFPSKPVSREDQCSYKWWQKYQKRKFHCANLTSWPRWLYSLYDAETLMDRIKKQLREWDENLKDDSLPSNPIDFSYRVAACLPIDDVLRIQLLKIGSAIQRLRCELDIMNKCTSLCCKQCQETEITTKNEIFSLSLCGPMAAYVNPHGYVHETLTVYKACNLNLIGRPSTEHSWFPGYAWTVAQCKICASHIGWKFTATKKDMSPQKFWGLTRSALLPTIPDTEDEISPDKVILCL

| SMILES | binding to CRBN (CRBN) | CCL3 or CCL4 secretion [2] | other results |
| --- | --- | --- | --- |
| O=C(c1ccc(Oc2ccccc2)cc1Cl)c1c[nH]c2ncnc(N[C@@H]3CC[C@@H](CO)OC3)c12 [ARQ-531] | did not bind to CRBN | little or no effect | BTK phosphorylation in C481S and E41K BTK mutants [1]: substantially attenuated |
| Nc1ncnc2c1c(-c1ccc(Oc3ccccc3)cc1)nn2C1CCN(CCOCCOCC(=O)Nc2ccc3c(c2)C(=O)N(C2CCC(=O)NC2=O)C3=O)CC1 (centres unmarked) [MT-802] | – | little or no effect | degradation of WT and mutant BTK [1]: can also degrade E41K, C481R, C481Y, C481T, and C481F BTK mutants |
| CC#CC(=O)N1CCC[C@H]1c1nc(-c2ccc(C(=O)Nc3ccccn3)cc2)c2c(N)nccn12 [acalabrutinib] | – | significantly abrogated CCL3 or CCL4 secretion | – |
| C=CC(=O)N1CCC[C@@H](n2nc(-c3ccc(Oc4ccccc4)cc3)c3c(N)ncnc32)C1 [ibrutinib] | did not bind to CRBN | significantly abrogated CCL3 or CCL4 secretion | inhibition of proliferation of C481S BTK-overexpressing TMD-8 cells (TMD-8 BTK C481S cells): resistance |
| O=C1CCC(N2C(=O)c3ccccc3C2=O)C(=O)N1 (centres unmarked) [thalidomide] | – | – | change in neosubstrates of U2932 and WSU-WM [3]: No significant change; degradation of CRBN neosubstrates in any of the tested cell lines [3]: did not lead to any significant degradation |
